“And” between values parts separate entries of the source, which are not always exact repeats. Identical values can stand only once. Like-named read-outs stand apart in the source and are kept apart here.
How the values were obtained:
[1] = oral, cited from earlier work
[2] = isotretinoin powder, supplier's statement; cited from earlier work
[3] = Particle size analysis of isotretinoin powder by laser scattering granulometer, before and after dispersion in liquid media; format: physicochemical
Description: The ability of glycol ethers to stabilize the particle size of an active principle was established by means of studies aimed at comparing the particle size of an isotretinoin powder supposed to have, according to its supplier, a median of 20 μm, before and after dispersion in 5 different liquid media consisting, respectively, of:
The particle size of the isotretinoin powder before dispersion in the liquid media, ie in dry form, was analyzed on samples of 2 g of powder (the vehicle in this case being compressed air), whereas its particle size after dispersion in the various liquid media was analyzed on samples of 20 ml containing 2% (w/v) of this powder, except in the case of the oily mixture, in which the content of isotretinoin powder in the samples was 6.5% (w/v).
All the particle size analyses were carried out using a Mastersizer Banc Long laser scattering granulometer (Malvern Instruments Ltd company) and an MS1 sampler from the same company.

Row | Structure (SMILES) | bioavailability ([1]; gel capsules of 10 and 25 mg, on average) [%] | bioavailability ([1]; soft capsules (Roaccutane), suspension in oily vehicle) | Median particle size according to supplier [2] [μm] | Median of the particle size ([3]; after dispersion in Labrafac PG (propylene glycol dicaprylocaprate), 2% (w/v)) [μm] | Median of the particle size ([3]; after dispersion in Labrasol (caprylocapric macrogolglycerides), 2% (w/v)) [μm] | Median of the particle size ([3]; after dispersion in Transcutol (diethylene glycol monoethyl ether, DGME), 2% (w/v)) [μm] | Median of the particle size ([3]; after dispersion in oily mixture of the Roaccutane type (yellow wax, soybean oils, partially hydrogenated plant oil, medium-chain triglyceride), 6.5% (w/v)) [μm] | Median of the particle size ([3]; isotretinoin powder in dry form, before dispersion (2 g samples, compressed air))
1 | COc1cc(C)c(/C=C/C(C)=C/C=C/C(C)=C/C(=O)O)c(C)c1C [acitretin] | 60 |  |  |  |  |  |  | 
2 | CC1=C(/C=C/C(C)=C/C=C/C(C)=C\C(=O)O)C(C)(C)CCC1 [isotretinoin, 13-cis-retinoic acid] |  | about 25% | 20 | 193.15 | 139.77 | 20.86 | 82.92 | 20 μm and 19.49 μm
